The numbers were not newly measured in patent publication US20130064888A1, “PHARMACEUTICAL FORMULATIONS” (priority 2011, published 2013), which cites them from elsewhere.

The conditions of data set [1]: many organic solvents, including ethanol.
The conditions of data set [2]: at 25° C.; practically insoluble in water.

As for “5-chloro-N-({(5S)-2-oxo-3-[4-(3-oxo-4-morpholinyl)-phenyl]-1,3-oxaolidin-5-yl}methyl-2-thiophencarboxamide [Rivaroxaban]”, the “solubility in organic solvents” value in data set [1] is listed as “low solubility”. For the same substance, the water solubility in data set [2] was less than 100 µg/mL.
